pIC50: −log10 of the molar value.
Biological target: ROCK2 (Homo sapiens, UniProt O75116)
Assay: ROCK assay: phosphorylation of FITC peptide substrate, LABCHIP 3000 mobility shift
Assay type: biochemical
Settings: 5 μM ATP, 1.5 μM peptide substrate; read-out: ROCK2 Activity (ROCK IC50 range)
Outline: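 IC50 values come from curve-fitting percent kinase inhibition across a compound dilution series. The reaction is started with Rho kinase variant in HEPES pH 7.5 buffer with MgCl2, Brij-35 and DTT, with 5 μM ATP, 1.5 μM FITC-labelled peptide and under 2% DMSO. After EDTA quench, product and substrate are separated by microfluidic mobility shift.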

ROCK2, sequence (O75116 whole entry, species assumed): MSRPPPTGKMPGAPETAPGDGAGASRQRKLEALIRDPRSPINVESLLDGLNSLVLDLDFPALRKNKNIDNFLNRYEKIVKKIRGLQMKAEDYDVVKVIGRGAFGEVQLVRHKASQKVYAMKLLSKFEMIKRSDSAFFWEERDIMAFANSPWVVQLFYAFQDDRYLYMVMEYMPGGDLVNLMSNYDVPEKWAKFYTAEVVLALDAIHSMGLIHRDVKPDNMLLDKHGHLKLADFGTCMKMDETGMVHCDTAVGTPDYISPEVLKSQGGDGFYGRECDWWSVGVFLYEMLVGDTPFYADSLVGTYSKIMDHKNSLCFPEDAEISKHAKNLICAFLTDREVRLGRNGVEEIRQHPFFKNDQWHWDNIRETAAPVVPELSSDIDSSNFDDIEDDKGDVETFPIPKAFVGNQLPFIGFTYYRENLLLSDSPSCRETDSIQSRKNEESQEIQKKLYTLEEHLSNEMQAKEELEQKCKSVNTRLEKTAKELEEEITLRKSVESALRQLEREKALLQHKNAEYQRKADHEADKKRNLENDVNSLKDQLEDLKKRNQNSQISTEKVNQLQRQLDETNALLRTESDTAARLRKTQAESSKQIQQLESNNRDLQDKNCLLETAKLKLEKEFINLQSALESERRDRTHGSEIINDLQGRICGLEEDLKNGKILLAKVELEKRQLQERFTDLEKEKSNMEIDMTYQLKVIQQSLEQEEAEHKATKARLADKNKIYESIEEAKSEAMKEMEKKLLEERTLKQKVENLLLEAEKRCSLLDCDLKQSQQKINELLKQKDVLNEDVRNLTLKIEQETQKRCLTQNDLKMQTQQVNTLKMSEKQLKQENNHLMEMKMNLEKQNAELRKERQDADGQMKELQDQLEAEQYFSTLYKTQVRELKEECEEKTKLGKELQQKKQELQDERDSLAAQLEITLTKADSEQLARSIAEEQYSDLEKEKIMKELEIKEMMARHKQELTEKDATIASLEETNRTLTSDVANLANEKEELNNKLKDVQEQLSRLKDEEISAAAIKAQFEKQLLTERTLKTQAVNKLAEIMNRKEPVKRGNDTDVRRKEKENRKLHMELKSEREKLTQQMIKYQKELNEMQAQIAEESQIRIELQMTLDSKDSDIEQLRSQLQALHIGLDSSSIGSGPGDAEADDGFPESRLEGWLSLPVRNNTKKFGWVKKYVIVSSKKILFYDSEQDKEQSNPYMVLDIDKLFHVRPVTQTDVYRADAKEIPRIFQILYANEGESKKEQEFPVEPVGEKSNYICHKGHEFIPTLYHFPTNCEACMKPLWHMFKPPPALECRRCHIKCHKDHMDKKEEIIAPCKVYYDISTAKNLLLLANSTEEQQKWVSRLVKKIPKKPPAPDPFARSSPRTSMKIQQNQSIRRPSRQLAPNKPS

| pIC50 | Structure (SMILES) |
| --- | --- |
| 8.30 to 8.70 | [H][C@]1(c2n[nH]c(=O)c3ccccc32)C[C@]2(C[C@@H](NC(=O)c3cnc4cc(-c5cn(C(C)C)nc5C(F)(F)F)ccn34)C2)C1 (stereo partly drawn) [Example 444, 7-(1-isopropyl-3-(trifluoromethyl)-1H-pyrazol-4-yl)-N-((aR)-6-(4-oxo-3,4-dihydrophthalazin-1-yl)spiro[3.3]heptan-2-yl)imidazo[1,2-a]pyridine-3-carboxamide] |
| 8.70 to 9.70 | CC1(C)CN(CCOc2ccc3c(C(=O)NC4CC5(C4)CC(c4n[nH]c(=O)c6ccccc46)C5)cnn3c2)CCC1O [Example 184, 6-(2-(4-hydroxy-3,3-dimethylpiperidin-1-yl)ethoxy)-N-((aR)-6-(4-oxo-3,4-dihydrophthalazin-1-yl)spiro[3.3]heptan-2-yl)pyrazolo[1,5-a]pyridine-3-carboxamide] |
| 7.00 to 7.82 | [H][C@]1(c2n[nH]c(=O)c3ccccc32)C[C@@]2(C[C@H](NC(=O)c3cc4cc(OC)ccc4n3C)C2)C1 (stereo partly drawn) [Example 293, 5-methoxy-1-methyl-N-((aR)-6-(4-oxo-3,4-dihydrophthalazin-1-yl)spiro[3.3]heptan-2-yl)-1H-indole-2-carboxamide] |
| 7.00 to 7.82 | [H][C@]1(c2n[nH]c(=O)c3ccccc32)C[C@]2(C[C@@H](NC(=O)c3cnn4cccc(Br)c34)C2)C1 (stereo partly drawn) [Example 304, 4-bromo-N-((aR)-6-(4-oxo-3,4-dihydrophthalazin-1-yl)spiro[3.3]heptan-2-yl)pyrazolo[1,5-a]pyridine-3-carboxamide] |
| 7.82 to 8.29 | O=C(N[C@H]1CC2(C1)C[C@H](c1n[nH]c(=O)c3ccccc31)C2)c1cnn2cc(CO)ccc12 (stereo partly drawn) [Example 213, 6-(hydroxymethyl)-N-((aR)-6-(4-oxo-3,4-dihydrophthalazin-1-yl)spiro[3.3]heptan-2-yl)pyrazolo[1,5-a]pyridine-3-carboxamide] |
| 7.00 to 7.82 | CC(C)(O)Cn1nc(C(=O)NC2CC3(C2)CC(F)(c2n[nH]c(=O)c4ccccc24)C3)c2ccc(F)cc21 (stereo not shown) [Example 163, 6-fluoro-N-(6-fluoro-6-(4-oxo-3,4-dihydrophthalazin-1-yl)spiro[3.3]heptan-2-yl)-1-(2-hydroxy-2-methylpropyl)-1H-indazole-3-carboxamide] |
| 8.70 to 9.70 | O=C(NC1CC2(C1)CC(c1n[nH]c(=O)c3ccccc13)C2)c1cnn2cc(N3CC(F)(F)C3)ccc12 [Example 92, 6-(3,3-difluoroazetidin-1-yl)-N-((aR)-6-(4-oxo-3,4-dihydrophthalazin-1-yl)spiro[3.3]heptan-2-yl)pyrazolo[1,5-a]pyridine-3-carboxamide] |
| 7.82 to 8.29 | O=C(NC1CC2(C1)CC(c1n[nH]c(=O)c3ccccc13)C2)c1ccn(CC2CC2)n1 [Example 23, 1-(cyclopropylmethyl)-N-[(aR)-6-(4-oxo-3,4-dihydrophthalazin-1-yl)spiro[3.3]heptan-2-yl]-1H-pyrazole-3-carboxamide] |
| 8.70 to 9.70 | [H][C@]1(c2n[nH]c(=O)c3ccccc32)C[C@]2(C[C@@H](NC(=O)c3cnc4cc(-c5cnn(C)c5)ccn34)C2)C1 (stereo partly drawn) [Example 440, 7-(1-methyl-1H-pyrazol-4-yl)-N-((aR)-6-(4-oxo-3,4-dihydrophthalazin-1-yl)spiro[3.3]heptan-2-yl)imidazo[1,2-a]pyridine-3-carboxamide] |
| 7.82 to 8.29 | [H][C@]1(c2n[nH]c(=O)c3ccccc32)C[C@]2(C[C@@H](NC(=O)c3cc4cccc(F)c4[nH]3)C2)C1 (stereo partly drawn) [Example 333, 7-fluoro-N-((aR)-6-(4-oxo-3,4-dihydrophthalazin-1-yl)spiro[3.3]heptan-2-yl)-1H-indole-2-carboxamide] |
| 8.30 to 8.70 | O=C(NC1CC2(C1)CC(c1n[nH]c(=O)c3ccccc13)C2)c1cnn2cc(COCCN3CCOCC3)ccc12 [Example 208, 6-((2-morpholinoethoxy)methyl)-N-((aR)-6-(4-oxo-3,4-dihydrophthalazin-1-yl)spiro[3.3]heptan-2-yl)pyrazolo[1,5-a]pyridine-3-carboxamide] |
| 7.82 to 8.29 | [H][C@]1(c2n[nH]c(=O)c3ccccc32)C[C@]2(C[C@@H](NC(=O)c3cccc(-c4nc(C)cs4)c3)C2)C1 (stereo partly drawn) [Example 340, 3-(4-methylthiazol-2-yl)-N-((aR)-6-(4-oxo-3,4-dihydrophthalazin-1-yl)spiro[3.3]heptan-2-yl)benzamide] |
| 8.30 to 8.70 | N#CCCc1ccc2c(C(=O)NC3CC4(C3)CC(c3n[nH]c(=O)c5ccccc35)C4)cnn2c1 [Example 207, 6-(2-cyanoethyl)-N-((aR)-6-(4-oxo-3,4-dihydrophthalazin-1-yl)spiro[3.3]heptan-2-yl)pyrazolo[1,5-a]pyridine-3-carboxamide] |
| 8.70 to 9.70 | Cc1c(C(=O)NC2CC3(C2)CC(c2n[nH]c(=O)c4ccccc24)C3)cnn1-c1ccccc1 [Example 20, 5-methyl-N-[(aR)-6-(4-oxo-3,4-dihydrophthalazin-1-yl)spiro[3.3]heptan-2-yl]-1-phenyl-1H-pyrazole-4-carboxamide] |
| 7.00 to 7.82 | [H][C@]1(c2n[nH]c(=O)c3ccccc32)C[C@]2(C[C@@H](NC(=O)c3cn4cc(Br)ccc4n3)C2)C1 (stereo partly drawn) [Example 363, 6-bromo-N-((aR)-6-(4-oxo-3,4-dihydrophthalazin-1-yl)spiro[3.3]heptan-2-yl)imidazo[1,2-a]pyridine-2-carboxamide] |
| 7.00 to 7.82 | CC(C)(O)Cn1ccc(C(=O)NC2CC3(C2)CC(c2n[nH]c(=O)c4ccccc24)C3)n1 [Example 30, 1-(2-hydroxy-2-methylpropyl)-N-[(aR)-6-(4-oxo-3,4-dihydrophthalazin-1-yl)spiro[3.3]heptan-2-yl]-1H-pyrazole-3-carboxamide] |
| 5.68 to 7.00 | [H][C@]1(c2n[nH]c(=O)c3ccccc32)C[C@]2(C[C@@H](NC(=O)c3ccc(-c4nn[nH]n4)cc3)C2)C1 (stereo partly drawn) [Example 345, N-((aR)-6-(4-oxo-3,4-dihydrophthalazin-1-yl)spiro[3.3]heptan-2-yl)-4-(2H-tetrazol-5-yl)benzamide] |
| 8.70 to 9.70 | [H][C@]1(c2n[nH]c(=O)c3ccccc32)C[C@]2(C[C@@H](NC(=O)c3cnc4c(OCc5ccccc5)cccn34)C2)C1 (stereo partly drawn) [Example 413, 8-(benzyloxy)-N-((aR)-6-(4-oxo-3,4-dihydrophthalazin-1-yl)spiro[3.3]heptan-2-yl)imidazo[1,2-a]pyridine-3-carboxamide] |
| 8.70 to 9.70 | [H][C@]1(c2n[nH]c(=O)c3ccccc32)C[C@]2(C[C@@H](NC(=O)c3cnc4cc(C(C)=O)ccn34)C2)C1 (stereo partly drawn) [Example 426, 7-acetyl-N-((aR)-6-(4-oxo-3,4-dihydrophthalazin-1-yl)spiro[3.3]heptan-2-yl)imidazo[1,2-a]pyridine-3-carboxamide] |
| 8.70 to 9.70 | [2H]C([2H])([2H])n1cc(-c2ccc3c(C(=O)NC4CC5(C4)CC(c4n[nH]c(=O)c6ccccc46)C5)cnn3c2)cn1 (stereo not shown) [Example 219] |
| 8.70 to 9.70 | O=C(NC1CC2(C1)CC(c1n[nH]c(=O)c3ccccc13)C2)N1CCc2cc(-c3cnn(C4CC4)c3)ccc21 [Example 236, 5-(1-cyclopropyl-1H-pyrazol-4-yl)-N-((aR)-6-(4-oxo-3,4-dihydrophthalazin-1-yl)spiro[3.3]heptan-2-yl)indoline-1-carboxamide] |
| 8.30 to 8.70 | Cc1nn(CC(F)F)cc1C(=O)NC1CC2(C1)CC(c1n[nH]c(=O)c3ccccc13)C2 [Example 32, 1-(2,2-difluoroethyl)-3-methyl-N-[(aR)-6-(4-oxo-3,4-dihydrophthalazin-1-yl)spiro[3.3]heptan-2-yl]-1H-pyrazole-4-carboxamide] |

From patent US9902702B2, “Spirocycloheptanes as inhibitors of rock” (BRISTOL-MYERS SQUIBB COMPANY, priority 2014, dated 2018)
